Source: paper PMC10791743, “Selective CK1α degraders exert antiproliferative activity against a broad range of human cancer cell lines” (Nature Communications, 2024)

How the values were obtained:
102 cell lines [1] = assay: Oncolines viability of 120 reference anti-cancer agents; format: cell-based, human
Procedure: Pearson correlations were calculated between SJ3149 ^10log IC50 values and those of the 120 reference agents, to determine the similarity of compound IC50 fingerprints.

102 cell lines [2] = conditions: cited from earlier work
102 cell lines [3] = assay: Oncolines viability of 120 reference anti-cancer agents; format: cell-based, human; remark: listed apart in the source

- IC50 (102 cell lines [1]; G-361, Melanoma): 2.53 µM
- IC50 (102 cell lines [1]; JAR, Gestational choriocarcinoma): 7.25 µM
- IC50 (102 cell lines [1]; KG-1, Adult acute myeloid leukemia): > 31.6 µM
- IC50 (102 cell lines [1]; MOLT-4, Adult T acute lymphoblastic leukemia): 2.87 µM
- IC50 (102 cell lines [1]; NCI-H460, Large cell lung carcinoma): 4.2 µM
- IC50 (102 cell lines [1]; RL, Diffuse large B-cell lymphoma, TP53 Mutant): > 31.6 µM
- IC50 (102 cell lines [1]; SNU-C2B, Cecum adenocarcinoma, TP53 Mutant): > 31.6 µM
- IC50 (102 cell lines [1]; SR, Anaplastic large cell lymphoma, TP53 Mutant): 2.04 µM
- IC50 (102 cell lines [1]; SW948, Colon adenocarcinoma, TP53 Mutant): > 31.6 µM
- IC50 (102 cell lines [1]; cell line ACHN, Papillary renal cell carcinoma, TP53 Wild-type): 3.3 µM
- IC50 (102 cell lines [1]; cell line AsPC-1, Pancreatic ductal adenocarcinoma, TP53 Mutant): > 31.6 µM
- IC50 (102 cell lines [1]; cell line Daoy, Medulloblastoma, TP53 Mutant): > 31.6 µM
- IC50 (102 cell lines [1]; cell line TT (Hereditary thyroid gland medullary carcinoma), TP53 Wild-type): 7.4 µM
- IC50 (102 cell lines [1]; cell line U-2 OS (Osteosarcoma), TP53 Wild-type): 13.3 µM
- IC50 (102 cell lines [3]; FaDu, Hypopharyngeal squamous cell carcinoma): > 31.6 µM
- IC50 (102 cell lines [3]; HCT 116, Colon carcinoma): 4.55 µM
- IC50 (102 cell lines [3]; HCT-15, Colon adenocarcinoma): > 31.6 µM
- IC50 (102 cell lines [3]; HL-60, Adult acute myeloid leukemia): > 31.6 µM
- IC50 (102 cell lines [3]; HT-1080, Fibrosarcoma): 2.06 µM
- IC50 (102 cell lines [3]; HT, Diffuse large B-cell lymphoma): > 31.6 µM
- IC50 (102 cell lines [3]; Hs 578T, Invasive ductal carcinoma): > 31.6 µM
- IC50 (102 cell lines [3]; Hs 746T, Gastric adenocarcinoma): > 31.6 µM
- IC50 (102 cell lines [3]; Hs 766T, Pancreatic adenocarcinoma): > 31.6 µM
- IC50 (102 cell lines [3]; HuTu 80, Duodenal adenocarcinoma): 3.91 µM
- IC50 (102 cell lines [3]; J82, Bladder carcinoma): > 31.6 µM
- IC50 (102 cell lines [3]; Jurkat E6.1, Childhood T acute lymphoblastic leukemia): > 31.6 µM
- IC50 (102 cell lines [3]; K-562, Chronic myelogenous leukemia): > 31.6 µM
- IC50 (102 cell lines [3]; KATO III, Signet ring cell gastric adenocarcinoma): 29.3 µM
- IC50 (102 cell lines [3]; KLE, Endometrial adenocarcinoma): > 31.6 µM
- IC50 (102 cell lines [3]; KU812, Chronic myelogenous leukemia): > 31.6 µM
- IC50 (102 cell lines [3]; LNCaP FGC, Prostate carcinoma): 10.9 µM
- IC50 (102 cell lines [3]; LS 174T, Colon adenocarcinoma): 3.7 µM
- IC50 (102 cell lines [3]; LS411N, Cecum adenocarcinoma): > 31.6 µM
- IC50 (102 cell lines [3]; LoVo, Colon adenocarcinoma): 10.2 µM
- IC50 (102 cell lines [3]; MCF7, Invasive ductal carcinoma): 11.4 µM
- IC50 (102 cell lines [3]; MG-63, Osteosarcoma): > 31.6 µM
- IC50 (102 cell lines [3]; MIA PaCa-2, Pancreatic ductal adenocarcinoma): > 31.6 µM
- IC50 (102 cell lines [3]; MeWo, Melanoma): > 31.6 µM
- IC50 (102 cell lines [3]; NCI-H82, Small cell lung carcinoma): > 31.6 µM
- IC50 (102 cell lines [3]; NCI-H661, Large cell lung carcinoma): > 31.6 µM
- IC50 (102 cell lines [3]; OVCAR-3, High grade ovarian serous adenocarcinoma, TP53 Mutant): > 31.6 µM
- IC50 (102 cell lines [3]; PA-1, Ovarian mixed germ cell tumor, TP53 Wild-type): 2.31 µM
- IC50 (102 cell lines [3]; PC-3, Prostate carcinoma, TP53 Mutant): > 31.6 µM
- IC50 (102 cell lines [3]; PFSK-1, Primitive neuroectodermal tumor, TP53 Mutant): > 31.6 µM
- IC50 (102 cell lines [3]; RKO, Colon carcinoma, TP53 Wild-type): 15.7 µM
- IC50 (102 cell lines [3]; RL95-2, Endometrial adenosquamous carcinoma, TP53 Mutant): 24.6 µM
- IC50 (102 cell lines [3]; RPMI-7951, Melanoma, TP53 Mutant): > 31.6 µM
- IC50 (102 cell lines [3]; RS4-11, Adult B acute lymphoblastic leukemia, TP53 Wild-type): 4.71 µM
- IC50 (102 cell lines [3]; RT4, Bladder carcinoma, TP53 Wild-type): 7.03 µM
- IC50 (102 cell lines [3]; SHP-77, Small cell lung carcinoma, TP53 Mutant): 27.3 µM
- IC50 (102 cell lines [3]; SJCRH30, Alveolar rhabdomyosarcoma, TP53 Mutant): > 31.6 µM
- IC50 (102 cell lines [3]; SK-N-AS, Neuroblastoma, TP53 Wild-type): > 31.6 µM
- IC50 (102 cell lines [3]; SK-N-FI, Neuroblastoma, TP53 Mutant): > 31.6 µM
- IC50 (102 cell lines [3]; SNU-5, Gastric carcinoma, TP53 Mutant): > 31.6 µM
- IC50 (102 cell lines [3]; SU-DHL-1, Anaplastic large cell lymphoma, TP53 Mutant): 30.7 µM
- IC50 (102 cell lines [3]; SU-DHL-6, Diffuse large B-cell lymphoma, TP53 Mutant): 23.4 µM
- IC50 (102 cell lines [3]; SUP-T1, Childhood T lymphoblastic lymphoma, TP53 Mutant): > 31.6 µM
- IC50 (102 cell lines [3]; SW48, Colon adenocarcinoma, TP53 Wild-type): 7.63 µM
- IC50 (102 cell lines [3]; SW480, Colon adenocarcinoma, TP53 Mutant): > 31.6 µM
- IC50 (102 cell lines [3]; SW620, Colon adenocarcinoma, TP53 Mutant): 13.6 µM
- IC50 (102 cell lines [3]; SW626, Colon adenocarcinoma, TP53 Mutant): > 31.6 µM
- IC50 (102 cell lines [3]; SW837, Rectal adenocarcinoma, TP53 Mutant): > 31.6 µM
- IC50 (102 cell lines [3]; SW872, Liposarcoma, TP53 Mutant): > 31.6 µM
- IC50 (102 cell lines [3]; SW900, Squamous cell lung carcinoma, TP53 Mutant): > 31.6 µM
- IC50 (102 cell lines [3]; SW982, Biphasic synovial sarcoma, TP53 Wild-type): 3.11 µM
- IC50 (102 cell lines [3]; T24, Bladder carcinoma, TP53 Mutant): > 31.6 µM
- IC50 (102 cell lines [3]; T98G, Glioblastoma, TP53 Mutant): > 31.6 µM
- IC50 (102 cell lines [3]; cell line 769-P, Renal cell carcinoma, TP53 Wild-type): 5.52 µM
- IC50 (102 cell lines [3]; cell line 786-O, Renal cell carcinoma, TP53 Mutant): 13.4 µM
- IC50 (102 cell lines [3]; cell line 5637, Bladder carcinoma, TP53 Mutant): > 31.6 µM
- IC50 (102 cell lines [3]; cell line A375, Amelanotic melanoma, TP53 Wild-type): 6.9 µM
- IC50 (102 cell lines [3]; cell line A388, Squamous cell carcinoma, TP53 Mutant): > 31.6 µM
- IC50 (102 cell lines [3]; cell line A-172, Glioblastoma, TP53 Wild-type): 11.5 µM
- IC50 (102 cell lines [3]; cell line A-427, Lung adenocarcinoma, TP53 Wild-type): 5.36 µM
- IC50 (102 cell lines [3]; cell line A-498, Renal cell carcinoma, TP53 Wild-type): 5.59 µM
- IC50 (102 cell lines [3]; cell line A-549, Lung adenocarcinoma, TP53 Wild-type): 6.56 µM
- IC50 (102 cell lines [3]; cell line A-704, Renal cell carcinoma, TP53 Mutant): > 31.6 µM
- IC50 (102 cell lines [3]; cell line AN3 CA, Endometrial adenocarcinoma, TP53 Mutant): > 31.6 µM
- IC50 (102 cell lines [3]; cell line AU-565, Breast adenocarcinoma, TP53 Mutant): > 31.6 µM
- IC50 (102 cell lines [3]; cell line BT-20, Invasive ductal carcinoma, TP53 Mutant): > 31.6 µM
- IC50 (102 cell lines [3]; cell line BT-549, Invasive ductal carcinoma, TP53 Mutant): > 31.6 µM
- IC50 (102 cell lines [3]; cell line BxPC-3, Pancreatic ductal adenocarcinoma, TP53 Mutant): > 31.6 µM
- IC50 (102 cell lines [3]; cell line C-33 A, Cervical squamous cell carcinoma, TP53 Mutant): > 31.6 µM
- IC50 (102 cell lines [3]; cell line CAL 27, Tongue squamous cell carcinoma, TP53 Mutant): > 31.6 µM
- IC50 (102 cell lines [3]; cell line CCF-STTG1, Astrocytoma, TP53 Wild-type): 7.17 µM
- IC50 (102 cell lines [3]; cell line CCRF-CEM, Childhood T acute lymphoblastic leukemia, TP53 Mutant): > 31.6 µM
- IC50 (102 cell lines [3]; cell line COLO 205, Colon adenocarcinoma, TP53 Mutant): > 31.6 µM
- IC50 (102 cell lines [3]; cell line COLO 829, Cutaneous melanoma, TP53 Wild-type): 15.6 µM
- IC50 (102 cell lines [3]; cell line DB, Diffuse large B-cell lymphoma, TP53 Mutant): 28.6 µM
- IC50 (102 cell lines [3]; cell line DLD-1, Colon adenocarcinoma, TP53 Mutant): > 31.6 µM
- IC50 (102 cell lines [3]; cell line DU 145, Prostate carcinoma, TP53 Mutant): > 31.6 µM
- IC50 (102 cell lines [3]; cell line DU4475, Breast carcinoma, TP53 Wild-type): 4.62 µM
- IC50 (102 cell lines [3]; cell line DoTc2 4510, Cervical carcinoma, TP53 Wild-type): > 31.6 µM
- IC50 (102 cell lines [3]; cell line ES-2, Ovarian clear cell adenocarcinoma, TP53 Mutant): > 31.6 µM
- IC50 (102 cell lines [3]; cell line TCCSUP (Bladder carcinoma), TP53 Mutant): > 31.6 µM
- IC50 (102 cell lines [3]; cell line THP-1 (Childhood acute monocytic leukemia), TP53 Mutant): > 31.6 µM
- IC50 (102 cell lines [3]; cell line U-87 MG (Glioblastoma), TP53 Wild-type): 4.37 µM
- IC50 (102 cell lines [3]; cell line U-118 MG (Astrocytoma), TP53 Mutant): > 31.6 µM
- IC50 (102 cell lines [3]; cell line VA-ES-BJ (Epithelioid sarcoma), TP53 Wild-type): 1.73 µM
Compound: COc1ccc(C2=N[C@@H](c3ccc(Cl)cc3)[C@@H](c3ccc(Cl)cc3)N2C(=O)N2CCNC(=O)C2)c(OC(C)C)c1 [Nutlin-3a]
- Potency in responsive cell lines (102 cell lines [2]): micromolar potency
- IC50 (102 cell lines [3]; NCCIT, Testicular embryonal carcinoma): > 31.6 µM
- IC50 (102 cell lines [3]; RD, Embryonal rhabdomyosarcoma, TP53 Mutant): > 31.6 µM
- IC50 (102 cell lines [3]; cell line A-204, Embryonal rhabdomyosarcoma, TP53 Wild-type): 3.06 µM
